For one assay, the system named is HeLa S-3 cells. Nature of the assay: HeLa GI50 determination (SRB growth inhibition). The format is cell-based, human. The following applies: Homo sapiens, HeLa S3, 48 h. The procedure: Growth inhibition (GI50) values were measured on the human cervical carcinoma cell line, HeLa S-3, which were selected for growth on plastic. The HeLa cell assay was based on the description of Skehan et al., J. Natl. Cancer Inst., 82:1107-12 (1990), which is hereby incorporated by reference in its entirety. HeLa cells were plated at 2×10^4 cells/well in 96 well plates. One day later, a control plate was fixed by the addition of TCA to 5%. After five rinses with tap water, the plate was air-dried and stored at 4° C. Test compounds were added to the remaining plates at 10-fold dilutions. Two days later, all plates were fixed as described above. Cells were then stained by the addition of 100 μL per well of 0.4% sulforhodamine B (SRB) in 1% acetic acid for 30 min at 4° C. Wells were then quickly rinsed 5× with 1% acetic acid and allowed to air dry. The SRB was then solubilized by the addition of 100 μL per well of unbuffered 10 mM Tris base. Dye was quantified by measuring absorbance at 490 nm on a Molecular Devices microplate reader. Growth inhibition was calculated according to the following equation: GI=100×(T−T0)/(C−T0), where the optical density (OD) of the test well after 2 days of treatment was T, the OD of the wells in the control plate on day 0 was T0 and C was the OD of untreated wells. Plots of percent growth inhibition versus inhibitor concentration were used to determine the GI50.

A further assay has as its system MCF-7 cells. Nature of the assay: MCF-7 GI50 determination (crystal violet growth inhibition). The class given is cell-based, human. The note with it: Homo sapiens, MCF7, 96 h. The procedure: Growth inhibition (GI50) values were measured on the human breast carcinoma line, MCF-7. MCF-7 cells were plated at 2×10^4 cells/well in 96 well plates and grown for 24 hours in drug free media. On day 2, test compounds were added to the plates at 10-fold dilutions. Four days later, cells were fixed by the addition of glutaraldehyde to 0.75%. After 30 min, the fixed cells were extensively rinsed with distilled water and dried at room temperature for one hour. The cells were then stained with a 0.2% crystal violet solution for one hour at room temperature. Unbound stain was removed by ten rinses with tap water and plates were allowed to air dry for 30 min. The crystal violet was then solubilized by the addition of 10% acetic acid for 15 min and quantified by measuring absorbance at 570 nm on a Molecular Devices microplate reader. Growth inhibition was calculated according to the following equation: GI=[…], where the optical density (OD) of the test well after 4 days of treatment was T, the OD of the wells in the control plate on day 0 was T0. Plots of percent growth inhibition versus inhibitor concentration were used to determine the GI50.

Where [1] appears, read: HeLa S-3 cells, 2 days of treatment, sulforhodamine B, read-out: HeLa Cells GI50.
[2] abbreviates: MCF-7 cells, 4 days of treatment, crystal violet, read-out: MCF-7 Cells GI50.
Setting [3] is: read-out: MCF-7 Cells GI50 (nM).

GI50 data for 21 molecules are collected here from patent publication US7745619B2, “Vinca derivatives” (priority 2003, dated 2010).

Structures are written as SMILES. Where two headings read alike, the source gives them in different places. Where only a bound is given, the exact number is not on record here.

As for `CC[C@]1(O)C[C@H]2CN(CCc3c([nH]c4ccc(C#C[Si](C)(C)C)cc34)[C@@](C(=O)OC)(c3cc4c(cc3OC)N(C)[C@H]3[C@@](O)(C(=O)OC)[C@H](OC(C)=O)[C@]5(CC)C=CCN6CC[C@]43[C@@H]65)C2)C1` [Example 16, 12′-(trimethylsilylethynyl)vinblastine], the 50% growth inhibitory concentration (GI50) with HeLa S-3 cells (setting [1]) came to 300 nM; in the assay on MCF-7 cells (setting [2]), 40 nM.
The matching figures for `CC#Cc1ccc2[nH]c3c(c2c1)CCN1C[C@H](C[C@@](O)(CC)C1)C[C@]3(C(=O)OC)c1cc2c(cc1OC)N(C)[C@H]1[C@@](O)(C(=O)OC)[C@H](OC(C)=O)[C@]3(CC)C=CCN4CC[C@]21[C@@H]43` [Example 18, 12′-propynylvinblastine]: 300 nM and 300 nM.
With `CC[C@]1(O)C[C@H]2CN(CCc3c([nH]c4ccc(C#CC(C)C)cc34)[C@@](C(=O)OC)(c3cc4c(cc3OC)N(C)[C@H]3[C@@](O)(C(=O)OC)[C@H](OC(C)=O)[C@]5(CC)C=CCN6CC[C@]43[C@@H]65)C2)C1` [Example 20, 12′-(3-methylbutynyl) vinblastine], the concentration for 50% growth inhibition (GI50) is 500 nM in the assay on HeLa S-3 cells (read-out: HeLa Cells GI50 (nM)) and > 1000 nM in the assay with MCF-7 cells (setting [3]).
The matching figures for `CC[C@]1(O)C[C@H]2CN(CCc3c([nH]c4ccc(C#CC(C)C)cc34)[C@@](C(=O)OC)(c3cc4c(cc3OC)N(C=O)[C@H]3[C@@](O)(C(=O)OC)[C@H](OC(C)=O)[C@]5(CC)C=CCN6CC[C@]43[C@@H]65)C2)C1` [Example 21, 12′-(3-methylbutynyl) vincristine]: 300 nM and 300 nM.
As to `CCCCC#Cc1ccc2[nH]c3c(c2c1)CCN1C[C@H](C[C@@](O)(CC)C1)C[C@]3(C(=O)OC)c1cc2c(cc1OC)N(C=O)[C@H]1[C@@](O)(C(=O)OC)[C@H](OC(C)=O)[C@]3(CC)C=CCN4CC[C@]21[C@@H]43` [Example 22, 12′-hexynylvincristine], the GI50 with HeLa S-3 cells (read-out: HeLa Cells GI50 (nM)) and in the assay on MCF-7 cells (setting [3]) was 300 nM throughout.
For `CCCCC#Cc1ccc2[nH]c3c(c2c1)CCN1C[C@H](C[C@@](O)(CC)C1)C[C@]3(C(=O)OC)c1cc2c(cc1OC)N(C)[C@H]1[C@@](O)(C(=O)OC)[C@H](OC(C)=O)[C@]3(CC)C=CCN4CC[C@]21[C@@H]43` [Example 23, 12′-hexynylvinblastine], the values for the GI50 with HeLa S-3 cells (setting [1]) and in the assay with MCF-7 cells (setting [2]) were 40 nM and 50 nM, respectively.
As for `CC[C@]1(O)C[C@H]2CN(CCc3c([nH]c4ccc(C#CCN(C)C)cc34)[C@@](C(=O)OC)(c3cc4c(cc3OC)N(C)[C@H]3[C@@](O)(C(=O)OC)[C@H](OC(C)=O)[C@]5(CC)C=CCN6CC[C@]43[C@@H]65)C2)C1` [Example 24, 12′-(N,N-dimethylaminopropynyl)vinblastine], the GI50 with HeLa S-3 cells (read-out: HeLa Cells GI50 (nM)) was 300 nM; in the assay on MCF-7 cells (setting [3]), 400 nM.
For the molecule `C=Cc1ccc2[nH]c3c(c2c1)CCN1C[C@H](C[C@@](O)(CC)C1)C[C@]3(C(=O)OC)c1cc2c(cc1OC)N(C)[C@H]1[C@@](O)(C(=O)OC)[C@H](OC(C)=O)[C@]3(CC)C=CCN4CC[C@]21[C@@H]43` [Example 25, 12′-vinylvinblastine], the GI50 in the assay on HeLa S-3 cells (setting [1]) is 3 nM; in the assay with MCF-7 cells (setting [2]) it was 9 nM.
Consider `CCOC(=O)/C=C/c1ccc2[nH]c3c(c2c1)CCN1C[C@H](C[C@@](O)(CC)C1)C[C@]3(C(=O)OC)c1cc2c(cc1OC)N(C)[C@H]1[C@@](O)(C(=O)OC)[C@H](OC(C)=O)[C@]3(CC)C=CCN4CC[C@]21[C@@H]43` [Example 26, 12′-(2-ethoxycarbonylvinyl)vinblastine], for which the values for the 50% growth inhibitory concentration (GI50) in the assay on HeLa S-3 cells (read-out: HeLa Cells GI50 (nM)) and in the assay on MCF-7 cells (setting [3]) were 165 nM and 70 nM, respectively.
The matching figures for `CC[C@]1(O)C[C@H]2CN(CCc3c([nH]c4ccc(/C=C/C(=O)OC(C)(C)C)cc34)[C@@](C(=O)OC)(c3cc4c(cc3OC)N(C)[C@H]3[C@@](O)(C(=O)OC)[C@H](OC(C)=O)[C@]5(CC)C=CCN6CC[C@]43[C@@H]65)C2)C1` [Example 27, 12′-(2-tert-butoxycarbonylvinyl) vinblastine]: 200 nM and 300 nM.
In the case of `CC[C@]1(O)C[C@H]2CN(CCc3c([nH]c4ccc(/C=C/C(=O)O)cc34)[C@@](C(=O)OC)(c3cc4c(cc3OC)N(C)[C@H]3[C@@](O)(C(=O)OC)[C@H](OC(C)=O)[C@]5(CC)C=CCN6CC[C@]43[C@@H]65)C2)C1` [Example 28, 12′-(2-carboxylvinyl) vinblastine], the GI50 in the assay with HeLa S-3 cells (read-out: HeLa Cells GI50 (nM)) came to 100 nM; in the assay with MCF-7 cells (setting [3]), 300 nM.
The matching figures for `CC[C@]1(O)C[C@H]2CN(CCc3c([nH]c4ccc(/C=C/C#N)cc34)[C@@](C(=O)OC)(c3cc4c(cc3OC)N(C)[C@H]3[C@@](O)(C(=O)OC)[C@H](OC(C)=O)[C@]5(CC)C=CCN6CC[C@]43[C@@H]65)C2)C1` [Example 30, 12′-(2-cyanovinyl) vinblastine]: 65 nM and 45 nM.
Consider `CC[C@]1(O)C[C@H]2CN(CCc3c([nH]c4ccc(/C=C/CNC(=O)OC(C)(C)C)cc34)[C@@](C(=O)OC)(c3cc4c(cc3OC)N(C)[C@H]3[C@@](O)(C(=O)OC)[C@H](OC(C)=O)[C@]5(CC)C=CCN6CC[C@]43[C@@H]65)C2)C1` [Example 31, 12′-(3-tert-butoxycarbonylaminopropenyl) vinblastine], for which the values for the concentration for 50% growth inhibition (GI50) in the assay on HeLa S-3 cells (read-out: HeLa Cells GI50 (nM)) and with MCF-7 cells (setting [3]) were 600 nM and 300 nM, respectively.
Turning to `CC[C@]1(O)C[C@H]2CN(CCc3c([nH]c4ccc(SCCCCO)cc34)[C@@](C(=O)OC)(c3cc4c(cc3OC)N(C)[C@H]3[C@@](O)(C(=O)OC)[C@H](OC(C)=O)[C@]5(CC)C=CCN6CC[C@]43[C@@H]65)C2)C1` [Example 32, 12′-(4-hydroxybutylsulfanyl)vinblastine], the concentration for 50% growth inhibition (GI50) stood at 35 nM in the assay with HeLa S-3 cells (read-out: HeLa Cells GI50 (nM)) and 30 nM in the assay on MCF-7 cells (setting [3]).
With `CC[C@]1(O)C[C@H]2CN(CCc3c([nH]c4ccc(SCCCO)cc34)[C@@](C(=O)OC)(c3cc4c(cc3OC)N(C)[C@H]3[C@@](O)(C(=O)OC)[C@H](OC(C)=O)[C@]5(CC)C=CCN6CC[C@]43[C@@H]65)C2)C1` [Example 33, 12′-(4-hydroxypropylsulfanyl)vinblastine], the concentration for 50% growth inhibition (GI50) was determined as 20 nM in the assay on HeLa S-3 cells (setting [1]) and 30 nM in the assay with MCF-7 cells (setting [2]).
The matching figures for `CC[C@]1(O)C[C@H]2CN(CCc3c([nH]c4ccc(SCCO)cc34)[C@@](C(=O)OC)(c3cc4c(cc3OC)N(C)[C@H]3[C@@](O)(C(=O)OC)[C@H](OC(C)=O)[C@]5(CC)C=CCN6CC[C@]43[C@@H]65)C2)C1` [Example 35, 12′-(2-hydroxyethylsulfanyl)vinblastine]: 200 nM and 60 nM.
Turning to `CC[C@]1(O)C[C@H]2CN(CCc3c([nH]c4ccc(SCc5ccc(OC)cc5)cc34)[C@@](C(=O)OC)(c3cc4c(cc3OC)N(C)[C@H]3[C@@](O)(C(=O)OC)[C@H](OC(C)=O)[C@]5(CC)C=CCN6CC[C@]43[C@@H]65)C2)C1` [Example 36, 12′-(4-methoxybenzylsulfanyl)vinblastine], the figures for the 50% growth inhibitory concentration (GI50) with HeLa S-3 cells (read-out: HeLa Cells GI50 (nM)) and in the assay on MCF-7 cells (setting [3]) were 30 nM and 50 nM, respectively.
The matching figures for `CC[C@]1(O)C[C@H]2CN(CCc3c([nH]c4ccc(SCc5ccccc5F)cc34)[C@@](C(=O)OC)(c3cc4c(cc3OC)N(C=O)[C@H]3[C@@](O)(C(=O)OC)[C@H](OC(C)=O)[C@]5(CC)C=CCN6CC[C@]43[C@@H]65)C2)C1` [Example 38]: 100 nM and 200 nM.
With `CCCSc1ccc2[nH]c3c(c2c1)CCN1C[C@H](C[C@@](O)(CC)C1)C[C@]3(C(=O)OC)c1cc2c(cc1OC)N(C)[C@H]1[C@@](O)(C(=O)OC)[C@H](OC(C)=O)[C@]3(CC)C=CCN4CC[C@]21[C@@H]43` [Example 39, 12′-(propylsulfanyl) vinblastine], the 50% growth inhibitory concentration (GI50) in the assay on HeLa S-3 cells (setting [1]) and in the assay on MCF-7 cells (setting [2]) was 25 nM each time.
Consider `CCSc1ccc2[nH]c3c(c2c1)CCN1C[C@H](C[C@@](O)(CC)C1)C[C@]3(C(=O)OC)c1cc2c(cc1OC)N(C=O)[C@H]1[C@@](O)(C(=O)OC)[C@H](OC(C)=O)[C@]3(CC)C=CCN4CC[C@]21[C@@H]43` [Example 40, 12′-(ethylsulfanyl) vincristine], for which the GI50 in the assay on HeLa S-3 cells (setting [1]) turned out to be 6 nM; in the assay with MCF-7 cells (setting [2]) it was 8 nM.
For `CCSc1ccc2[nH]c3c(c2c1)CCN1C[C@H](C[C@@](O)(CC)C1)C[C@]3(C(=O)OC)c1cc2c(cc1OC)N(C)[C@H]1[C@@](O)(C(=O)OC)[C@H](OC(C)=O)[C@]3(CC)C=CCN4CC[C@]21[C@@H]43` [Example 41, 12′-(ethylsulfanyl) vinblastine], the concentration for 50% growth inhibition (GI50) in the assay on HeLa S-3 cells (setting [1]) worked out at 2 nM; in the assay with MCF-7 cells (setting [2]), 3 nM.

The term GI50 denotes the concentration at which growth is held to half of that of the control.
